Earlier results in US20120171125A1, “Methods for Enhancing the Cognitive Function” (UCB PHARMA, S.A., priority 2009, published 2012).

Columns and labels:
epilepsy = settings: in vivo
SV2A = SV2A (Homo sapiens, UniProt Q7L0J3)
cognitive function = settings: animals and humans

Sequence of SV2A (Q7L0J3 whole entry, species assumed): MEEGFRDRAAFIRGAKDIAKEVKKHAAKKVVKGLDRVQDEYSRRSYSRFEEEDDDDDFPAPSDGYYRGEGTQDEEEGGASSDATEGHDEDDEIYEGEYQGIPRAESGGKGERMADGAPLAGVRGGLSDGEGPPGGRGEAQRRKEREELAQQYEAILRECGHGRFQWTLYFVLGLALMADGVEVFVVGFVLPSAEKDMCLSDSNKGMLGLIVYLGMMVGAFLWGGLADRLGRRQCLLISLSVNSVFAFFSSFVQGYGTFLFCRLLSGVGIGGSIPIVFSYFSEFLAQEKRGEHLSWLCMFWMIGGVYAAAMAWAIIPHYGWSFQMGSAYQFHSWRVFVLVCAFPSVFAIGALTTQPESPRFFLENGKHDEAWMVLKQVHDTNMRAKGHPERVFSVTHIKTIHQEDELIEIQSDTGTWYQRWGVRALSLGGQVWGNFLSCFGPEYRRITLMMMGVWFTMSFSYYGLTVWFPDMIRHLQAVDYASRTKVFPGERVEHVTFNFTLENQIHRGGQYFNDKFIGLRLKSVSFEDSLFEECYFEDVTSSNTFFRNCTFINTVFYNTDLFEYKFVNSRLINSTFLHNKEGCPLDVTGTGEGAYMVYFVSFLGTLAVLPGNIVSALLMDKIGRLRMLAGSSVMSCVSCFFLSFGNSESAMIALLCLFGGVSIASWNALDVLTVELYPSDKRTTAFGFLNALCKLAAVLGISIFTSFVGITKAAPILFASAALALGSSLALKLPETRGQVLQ

SMILES	antiepileptic activity (epilepsy)	affinity / binding to SV2A (SV2A)	impact on the cognitive function (cognitive function)
CC[C@H](C(N)=O)N1CCCC1=O [(R)-(+)-alpha-ethyl-2-oxo-1-pyrrolidine acetamide]	completely lacks activity	–	–
CC[C@@H](C(N)=O)N1C[C@H](C=C(F)F)CC1=O [Seletracetam, (2S)-2-[(4S)-4-(2,2-difluorovinyl)-2-oxo-pyrrolidinyl]butanamide]	very potent antiepileptic activities	potent affinity to SV2A	–
CCC[C@@H]1CC(=O)N([C@@H](CC)C(N)=O)C1 [brivaracetam, (2S)-2-[(4R)-2-oxo-4-propyl-pyrrolidin-1-yl]butanamide]	very potent antiepileptic activities	potent affinity to SV2A	–
CC[C@@H](C(N)=O)N1CCCC1=O [levetiracetam, (S)-(−)-alpha-ethyl-2-oxo-1-pyrrolidine acetamide]	–	–	no impact on the cognitive function
NC(=O)CN1CCCC1=O [piracetam]	–	does not bind to SV2A	–
